Results on seven compounds are retold here after publication PMC11433679, “Synthesis, Characterization, and Biological Evaluation of N-Methyl Derivatives of Norbelladine” (Molecules, 2024).

pEC50, pIC50: −log10 of the molar value.

A word on the inhibition: it is the change of the read-out against control, counted positive when it falls. The term pIC50 denotes the IC50 on a negative log10 scale, so that one unit is a factor of ten. Usually pEC50 stands for −log10 of the EC50, conventionally taken in molar units. As usually defined, the CC50 is the concentration giving 50% cytotoxicity.

The target of data set [1] is butyrylcholinesterase (BuChE) (Equus caballus, UniProt P81908). Description: Butyrylcholinesterase inhibition, colorimetric (DTNB, butyrylthiocholine substrate). It counts as biochemical, equine. As to conditions: for inhibition at 500 µM: highest tested concentration; for pIC50: butyrylthiocholine substrate; for fold increase in BuChE inhibition by N-methylation compared to non-N-methylated control: ratio of IC50 values. The protocol: (§1) Pharmacological properties specific to Alzheimer’s disease (AD) were tested on acetylcholinesterases (AChEs) from electric eels and butyrylcholinesterase (BuChE) from equine species using a colorimetric kit (ab138871, Abcam, Cambridge, UK), which measures enzyme activity and inhibition. The reaction was carried out in a final volume of 100 µL in 96-well microplates. […] A 5 µL reaction mixture containing equal amounts of acetylthiocholine/butyrylthiocholine (20X) and DTNB (20X) was then added to each well. Subsequently, the enzyme solution was added to a final concentration of 2 U/mL, and absorbance was measured at 412 nm in kinetic mode for 10 min using a microplate reader (Synergy H1, Biotek, Dorval, QC, Canada). DTNB (Bis(3-carboxy-4-nitrophenyl) disulfide, Ellman’s Reagent), acetylthiocholine iodide, and butyrylthiocholine iodide were obtained from Sigma-Aldrich (Oakville, ON, Canada). Galanthamine (50–0.05 µM) and rivastigmine (400–0.4 µM) were used as positive controls for the AChE and BuChE assays, respectively. Compounds showing inhibition during preliminary screenings were selected for further IC50 value assessment using serially diluted concentrations. All experiments were performed at least twice. Inhibition was calculated using the formula [24]:I = 100 × (1 − ΔAi/ΔA0), where ΔAi is the difference in absorbance between two time points in the presence of the inhibitor, and ΔA0 is the difference in absorbance between two-time points in the presence of DMSO or an appropriate solvent.

Data set [2] deals with T1, acetylcholinesterase (AChE) (Electrophorus electricus, UniProt O42275).
T1 construct: purchased Abcam ab138871
As to the kind of experiment: Acetylcholinesterase inhibition, colorimetric (DTNB, acetylthiocholine substrate). It counts as biochemical, electric eel. The settings on record: for inhibition at 500 µM: highest tested concentration; for pIC50: Nd = >500 μM. The protocol: as §1

Data set [3] has as its system dengue virus (DENV). Description: microbe, parasite or virus in culture. It is filed as cell-based. The settings on record: for SI DENV (selectivity index, ratio CC50/EC50): CC50 Huh7 / EC50 DENV; for pEC50: Dengue virus, Huh-7, 72 h, DENVGFP in Huh7 cells, MOI 0.1, 3 days.
Data set [4] in a line: Cytotoxicity assay (Cell-Titer GLO, ATP levels, 72 h). It counts as cell-based. The settings on record: human; HCT-8 cells, 72 h treatment, 4–500 µM. The source says:
(§2) The human hepatocarcinoma Huh7 cell line (CVCL_0336) was maintained in Dulbecco’s Modified Eagle Medium (DMEM) supplemented with 10% fetal bovine serum (FBS) and 1% penicillin/streptomycin solution (PS, from GIBCO, Fisher Scientific, Toronto, ON, Canada). The human leukemia monocytic THP-1 (CVCL_0006) and adenocarcinoma HCT-8 cell lines (CVCL_2478) were maintained in Roswell Park Memorial Institute (RPMI) medium supplemented with 10% FBS or horse serum, respectively, and 1% PS. All reagents and antibiotics were purchased from GIBCO, Fisher Scientific, Toronto, ON, Canada). Cells were kept in an incubator at 37 °C and 5% CO2.
(§3) In total, 10 × 10^3 Huh7 cells/well, or 5 × 10^4 THP-1 or HCT-8 cells/well were plated in 96-well plates and incubated at 37 °C and 5% CO2. Compounds (4–500 µM, 2-fold dilutions) were added the next day and cytotoxicity was assessed 72 h later by measuring ATP levels with the Cell-Titer GLO assay kit (Promega, Madison, WI, USA). Cell-Titer GLO reagent was added to the plates previously equilibrated to room temperature for 30 min. Plates were mixed for 2 min and incubated for 10 min at room temperature. The luminescence signal was measured with a microplate reader (Synergy H1, Biotek, Dorval, QC, Canada). Viability percentage was calculated as the ratio of the signal of cells exposed to compounds to the signal of cells exposed to solvent (methanol). All experiments were performed at least twice. Median cytotoxic concentrations (CC50) were calculated using GraphPad prism 10.0.2 (GraphPad Software, San Diego, CA, USA).

Data set [5] relates to human coronavirus OC43 (HCoV-OC43). As to the kind of experiment: Antiviral assay, HCoV-OC43 replication in HCT-8 cells (flow cytometry). It is filed as cell-based, human betacoronavirus OC43. The settings on record: for pEC50: Betacoronavirus 1, OC43, HCT-8, 72 h, read-out: EC50 OC-43; for SI OC-43 (selectivity index, ratio CC50/EC50): CC50 HCT-8 / EC50 OC-43. A general note: A flow cytometer gives signals particle by particle.

Data set [6] is described as follows: Cytotoxicity assay (Cell-Titer GLO, ATP levels, 72 h). As to conditions: human, 72 h treatment, 4–500 µM. It counts as cell-based, human.
Text: as §2, §3

Data set [7] concerns pseudotyped HIV-1. As to the kind of experiment: microbe, parasite or virus in culture. As to conditions: for SI HIV-1 (selectivity index, ratio CC50/EC50): CC50 THP-1 / EC50 HIV-1; for pEC50: Human immunodeficiency virus 1, THP-1, 72 h, read-out: EC50 HIV-1. It counts as cell-based, human immunodeficiency virus (HIV)-1.
In data set [8] the test system is AChE. Set-up: method as in earlier work. As to conditions: ref 19 (Vaněčková et al.); cited from earlier work.
In data set [9] the test system is THP-1 cells. Description: Cytotoxicity assay (Cell-Titer GLO, ATP levels, 72 h). It is filed as cell-based, human. The settings on record: 72 h treatment, 4–500 µM.
Text: as §2, §3

In data set [10] the test system is Huh7 cells. The data set is described as above. It counts as cell-based, human. As to conditions: 72 h treatment, 4–500 µM.
Text: as §2, §3

Sequence of butyrylcholinesterase (BuChE) (P81908 whole entry): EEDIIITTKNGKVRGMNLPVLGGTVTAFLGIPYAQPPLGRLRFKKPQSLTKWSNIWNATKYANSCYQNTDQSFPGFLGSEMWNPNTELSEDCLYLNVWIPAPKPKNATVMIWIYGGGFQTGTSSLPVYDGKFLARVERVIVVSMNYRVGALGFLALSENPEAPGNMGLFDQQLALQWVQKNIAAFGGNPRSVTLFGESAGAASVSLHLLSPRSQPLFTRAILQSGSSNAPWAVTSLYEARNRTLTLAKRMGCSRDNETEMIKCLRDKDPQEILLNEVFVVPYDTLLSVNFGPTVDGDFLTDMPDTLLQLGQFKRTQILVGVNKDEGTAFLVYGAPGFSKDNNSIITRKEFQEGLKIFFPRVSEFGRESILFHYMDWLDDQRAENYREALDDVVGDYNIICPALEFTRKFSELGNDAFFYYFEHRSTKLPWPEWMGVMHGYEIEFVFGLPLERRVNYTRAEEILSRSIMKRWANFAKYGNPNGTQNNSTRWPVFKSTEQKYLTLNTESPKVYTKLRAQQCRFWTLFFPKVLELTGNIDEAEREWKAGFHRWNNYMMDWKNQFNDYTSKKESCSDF
T1 sequence (O42275 24-633): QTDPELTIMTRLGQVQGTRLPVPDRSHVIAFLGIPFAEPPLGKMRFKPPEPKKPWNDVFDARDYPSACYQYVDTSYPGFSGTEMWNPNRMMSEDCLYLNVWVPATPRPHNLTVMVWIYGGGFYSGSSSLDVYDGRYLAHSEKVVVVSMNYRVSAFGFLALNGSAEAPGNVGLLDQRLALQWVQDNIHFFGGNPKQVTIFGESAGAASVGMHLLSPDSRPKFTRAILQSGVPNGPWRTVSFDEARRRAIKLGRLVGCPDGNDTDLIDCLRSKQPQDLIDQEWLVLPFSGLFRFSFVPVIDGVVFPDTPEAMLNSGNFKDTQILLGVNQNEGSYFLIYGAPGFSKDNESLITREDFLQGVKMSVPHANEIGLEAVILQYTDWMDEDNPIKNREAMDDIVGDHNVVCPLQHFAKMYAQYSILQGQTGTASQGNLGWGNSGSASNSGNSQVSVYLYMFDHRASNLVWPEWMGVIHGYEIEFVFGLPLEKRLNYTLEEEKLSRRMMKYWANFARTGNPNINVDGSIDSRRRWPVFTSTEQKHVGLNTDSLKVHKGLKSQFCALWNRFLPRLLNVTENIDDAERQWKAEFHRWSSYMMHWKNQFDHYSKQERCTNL

In the case of `COc1ccc(CNCCc2ccc(O)cc2)cc1OC` [3′,4′-O-dimethylnorbelladine], the inhibition at 500 µM in [1] amounted to 94%; in data set [2] it was 37%. For the same compound, the pIC50 in data set [1] is 3.97; in data set [2] it was < 3.30. The “SI DENV (selectivity index, ratio CC50/EC50)” value in data set [3] is recorded as >3.64. Besides, the pEC50 is 3.86 in [3], 4.07 in data set [5] and 3.72 in [7]. The CC50 at 72 h in [4], in data set [6] (Huh7 cells) and in data set [6] (THP-1 cells) was > 500 µM each time. For the same compound, the “SI OC-43 (selectivity index, ratio CC50/EC50)” value in [5] is >5.91. Besides, the “SI HIV-1 (selectivity index, ratio CC50/EC50)” value in data set [7] was >2.63.
As for `COc1cc(CNCCc2ccc(O)cc2)ccc1O` [3′-O-methylnorbelladine], the inhibition at 500 µM in [1] was found to be 96%; in data set [2] it was 10%. Besides, the pIC50 was 4.56 in [1] and < 3.30 in data set [2]. Also, the “SI DENV (selectivity index, ratio CC50/EC50)” value in data set [3] is >3.62. Further, the pEC50 is 3.86 in data set [3], 4.13 in [5] and 3.75 in data set [7]. The half-maximal cytotoxic concentration (CC50) at 72 h in data set [4], in data set [6] (Huh7 cells) and in [6] (THP-1 cells) was > 500 µM each time. In addition, the “SI OC-43 (selectivity index, ratio CC50/EC50)” value in data set [5] is reported as >6.71. Moreover, the “SI HIV-1 (selectivity index, ratio CC50/EC50)” value in [7] is >2.83.
Turning to `COc1ccc(CN(C)CCc2ccc(O)cc2)cc1O` [4′-O,N-dimethylnorbelladine, 5-(((4-hydroxyphenethyl)(methyl)amino)methyl)-2-methoxyphenol], in data set [1], the inhibition at 500 µM was 99%, the pIC50 was 4.98 and the “fold increase in BuChE inhibition by N-methylation compared to non-N-methylated control” value is 1.5 fold. Also, in [2], the inhibition at 500 µM is 43.6% and the pIC50 was < 3.30. In data set [3], the “SI DENV (selectivity index, ratio CC50/EC50)” value is 4.81 and the pEC50 is 4.02. Further, the CC50 at 72 h in [4] was > 500 µM. In [5], the negative logarithm of the EC50 (pEC50) is 4.37 and the “SI OC-43 (selectivity index, ratio CC50/EC50)” value is listed as >11.80. Moreover, the CC50 at 72 h in [6] (Huh7 cells) is 460 µM. Also, the cytotoxic concentration (CC50) at 72 h in data set [6] (THP-1 cells) is > 500 µM. For the same compound, in [7], the “SI HIV-1 (selectivity index, ratio CC50/EC50)” value is recorded as >4.06 and the pEC50 was 3.91.
As for `COc1ccc(CCN(C)Cc2ccc(O)c(OC)c2)cc1` [4′-O-demethylbelladine], in [8], the anti-AChE activity entry is reported as “weak”.
For the compound `COc1ccc(CNCCc2ccc(O)cc2)cc1O` [4′-O-methylnorbelladine], the results for the inhibition at 500 µM in data set [1] and in data set [2] were 99% and 33.6%, respectively. Besides, the pIC50 in data set [1] was 4.79; in data set [2], < 3.30. The “SI DENV (selectivity index, ratio CC50/EC50)” value in [3] is given as >6.28. Also, the negative logarithm of the EC50 (pEC50) in data set [3] is 4.10; in data set [5], 4.20; in [7] it was 3.79. Moreover, the CC50 at 72 h in data set [4], in data set [6] (Huh7 cells) and in data set [6] (THP-1 cells) was > 500 µM each time. In addition, the “SI OC-43 (selectivity index, ratio CC50/EC50)” value in [5] is given as >7.93. For the same compound, in [7], the “SI HIV-1 (selectivity index, ratio CC50/EC50)” value is listed as >3.06.
With `CN(CCc1ccc(O)cc1)Cc1ccc(O)c(O)c1` [N-methylnorbelladine], the inhibition at 500 µM in [1] was 96%; in [2] it was 31.2%. Besides, the pIC50 was 5.40 in [1] and < 3.30 in [2]. Besides, the “fold increase in BuChE inhibition by N-methylation compared to non-N-methylated control” value in data set [1] came to 2 fold. The “SI DENV (selectivity index, ratio CC50/EC50)” value in data set [3] is 5.70. For the same compound, the negative logarithm of the EC50 (pEC50) in data set [3] was 4.17; in data set [5], 4.18; in [7], 4.37. The CC50 at 72 h in data set [4] is > 500 µM; in [6] (Huh7 cells), 386 µM; in [6] (THP-1 cells) it was 227 µM. In data set [5], the “SI OC-43 (selectivity index, ratio CC50/EC50)” value is recorded as >7.49. Further, the CC50 in data set [9] was 227 µM; in [10], 386 µM. Moreover, the “SI HIV-1 (selectivity index, ratio CC50/EC50)” value in data set [7] came to 5.36.
On to `Oc1ccc(CCNCc2ccc(O)c(O)c2)cc1` [Norbelladine], for which the inhibition at 500 µM was 95% in [1] and 24.5% in data set [2]. The negative-log IC50 (pIC50) in [1] was 5.10; in [2], < 3.30. Also, in data set [3], the “SI DENV (selectivity index, ratio CC50/EC50)” value was 3.30. Further, the negative-log EC50 (pEC50) was 4.15 in data set [3], 4.25 in [5] and 4.17 in [7]. The CC50 at 72 h is > 500 µM in [4], 233 µM in data set [6] (Huh7 cells) and 148 µM in data set [6] (THP-1 cells). Further, in data set [5], the “SI OC-43 (selectivity index, ratio CC50/EC50)” value is >8.98. Further, the 50% cytotoxic concentration (CC50) in [9] is 148 µM; in data set [10] it was 233 µM. The “SI HIV-1 (selectivity index, ratio CC50/EC50)” value in data set [7] was found to be 2.22.
